Test results: patent US12180187B2, “1-phenyl-5-azinylpyrazolyl-3-oxyalkyl acids and their use for controlling unwanted plant growth” (BAYER AKTIENGESELLSCHAFT, priority 2019, dated 2024)

Experiments:
[1] = test system: ECHCG; test: Pre-emergence action against ECHCG, 1280 g/ha; format: in vivo, Echinochloa crus-galli; conditions: visual scoring after about 3 weeks vs untreated controls, 100% = plants have died, 0% = like control plants
Method in brief: (§1)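 Visual % scoring, roughly 3 weeks post-application, against untreated controls; 100% means plants died. Treatment went onto the soil covering sown seeds (sandy loam), as aqueous suspension or emulsion plus 0.5% additive.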

[2] = test system: LOLRI; test: Pre-emergence action against LOLRI, 1280 g/ha; format: in vivo, Lolium rigidum; conditions: visual scoring after about 3 weeks vs untreated controls, 100% = plants have died, 0% = like control plants
Method in brief: as §1

[3] = test system: POAAN; test: Pre-emergence action against POAAN, 1280 g/ha; format: in vivo, Poa annua; conditions: visual scoring after about 3 weeks vs untreated controls, 100% = plants have died, 0% = like control plants
Method in brief: as §1

[4] = test system: SETVI; test: Pre-emergence action against SETVI, 1280 g/ha; format: in vivo, Setaria viridis; conditions: visual scoring after about 3 weeks vs untreated controls, 100% = plants have died, 0% = like control plants
Method in brief: as §1

[5] = test system: AMARE; test: Pre-emergence action against AMARE, 1280 g/ha; format: in vivo, Amaranthus retroflexus; conditions: scored visually after about 3 weeks vs untreated controls (100% = plants have died)
Method in brief: as §1

[6] = test system: MATIN; test: Pre-emergence action against MATIN, 1280 g/ha; format: in vivo, Tripleurospermum inodorum (Matricaria inodora); conditions: scored visually after about 3 weeks vs untreated controls (100% = plants have died)
Method in brief: as §1

[7] = test system: STEME; test: Pre-emergence action against STEME, 1280 g/ha; format: in vivo, Stellaria media; conditions: scored visually after about 3 weeks vs untreated controls (100% = plants have died)
Method in brief: as §1

[8] = test system: VERPE; test: Pre-emergence action against VERPE, 1280 g/ha; format: in vivo, Veronica persica; conditions: scored visually after about 3 weeks vs untreated controls (100% = plants have died)
Method in brief: as §1

[9] = test system: ECHCG; test: Post-emergence action against ECHCG, 1.28 kg/ha; format: in vivo, Echinochloa crus-galli; conditions: dosage 1280 g/ha, visual rating about 3 weeks after treatment vs untreated controls
Description: (§2) • a) Seeds of mono- and dicotyledonous weed plants are placed in plastic pots in sandy loam soil (twin sowing with one species each of mono- or dicotyledonous weed plants per pot), covered with soil and cultivated in a greenhouse under controlled growth conditions. 2 to 3 weeks after sowing, the test plants are treated at the one-leaf stage. The compounds of the invention, formulated in the form of wettable powders (WP) or as emulsion concentrates (EC), are applied to the green parts of the plants as aqueous suspension or emulsion with addition of 0.5% additive at a water application rate equivalent to 600 litres per hectare. After the test plants have been kept in the greenhouse under optimum growth conditions for about 3 weeks, the activity of the preparations is rated visually in comparison to untreated controls. For example, 100% activity=the plants have died, 0% activity=like control plants. As shown by the results, compounds of the general formula (I) of the invention, in post-emergence treatment, have very good herbicidal efficacy (90% to 100% herbicidal action) against harmful plants such as Abutilon theophrasti, Digitaria sanguinalis, Echinochloa crus-galli, Matricaria inodora, Poa annua, at an application rate of 1.28 kg of active substance per hectare.

[10] = test system: POAAN; test: Post-emergence action against POAAN, 1.28 kg/ha; format: in vivo, Poa annua; conditions: dosage 1280 g/ha, visual rating about 3 weeks after treatment vs untreated controls
Method in brief: (§3)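 Percent activity was scored visually ~3 wk post-spray relative to untreated plants. Treatment was post-emergence at the one-leaf stage using WP/EC in water with 0.5% additive (600 L/ha).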

[11] = test system: SETVI; test: Post-emergence action against SETVI, 1.28 kg/ha; format: in vivo, Setaria viridis; conditions: dosage 1280 g/ha, visual rating about 3 weeks after treatment vs untreated controls
Description: as §2

[12] = test system: ABUTH; test: Post-emergence action against ABUTH, 1.28 kg/ha; format: in vivo, Abutilon theophrasti; conditions: dosage 1280 g/ha, visual rating about 3 weeks after treatment vs untreated controls (100% = plants died)
Description: as §2

[13] = test system: AMARE; test: Post-emergence action against AMARE, 1.28 kg/ha; format: in vivo, Amaranthus retroflexus; conditions: dosage 1280 g/ha, visual rating about 3 weeks after treatment vs untreated controls (100% = plants died)
Method in brief: as §3

[14] = test system: MATIN; test: Post-emergence action against MATIN, 1.28 kg/ha; format: in vivo, Tripleurospermum inodorum (Matricaria inodora); conditions: dosage 1280 g/ha, visual rating about 3 weeks after treatment vs untreated controls (100% = plants died)
Method in brief: as §3

[15] = test system: STEME; test: Post-emergence action against STEME, 1.28 kg/ha; format: in vivo, Stellaria media; conditions: dosage 1280 g/ha, visual rating about 3 weeks after treatment vs untreated controls (100% = plants died)
Description: as §2

[16] = test system: VERPE; test: Post-emergence action against VERPE, 1.28 kg/ha; format: in vivo, Veronica persica; conditions: dosage 1280 g/ha, visual rating about 3 weeks after treatment vs untreated controls (100% = plants died)
Method in brief: as §3

[17] = test system: DIGSA; test: Pre-emergence action against DIGSA, 1280 g/ha; format: in vivo, Digitaria sanguinalis; conditions: visual scoring after about 3 weeks vs untreated controls, 100% = plants have died, 0% = like control plants
Method in brief: as §1

[18] = test system: ALOMY; test: Post-emergence action against ALOMY, 1.28 kg/ha; format: in vivo, Alopecurus myosuroides; conditions: dosage 1280 g/ha, visual rating about 3 weeks after treatment vs untreated controls
Method in brief: as §3

[19] = test system: DIGSA; test: Post-emergence action against DIGSA, 1.28 kg/ha; format: in vivo, Digitaria sanguinalis; conditions: dosage 1280 g/ha, visual rating about 3 weeks after treatment vs untreated controls
Method in brief: as §3

[20] = test system: ALOMY; test: Pre-emergence action at 320 g/ha against ALOMY; format: in vivo, Alopecurus myosuroides; conditions: scored visually after about 3 weeks vs untreated controls (100% = plants have died)
Source text: (§4) b) Seeds of monocotyledonous and dicotyledonous weed plants and crop plants are placed in plastic or organic planting pots and covered with soil. The compounds of the invention, formulated in the form of wettable powders (WP) or as emulsion concentrates (EC), are then applied onto the surface of the covering soil as aqueous suspension or emulsion with addition of 0.5% additive at a water application rate of 600 l/ha (converted). After the treatment, the pots are placed in a greenhouse and kept under good growth conditions for the trial plants. After about 3 weeks, the effect of the preparations is scored visually in comparison with untreated controls as percentages. For example, 100% activity=the plants have died, 0% activity=like control plants. Tables 13 to 26 below show the effects of selected compounds of the general formula (I) on various harmful plants and at an application rate corresponding to 320 g/ha, which were obtained by the experimental procedure mentioned above.

[21] = test system: LOLRI; test: Pre-emergence action at 320 g/ha against LOLRI; format: in vivo, Lolium rigidum; conditions: visual scoring after about 3 weeks vs untreated controls
Source text: as §4

[22] = test system: AMARE; test: Pre-emergence action at 320 g/ha against AMARE; format: in vivo, Amaranthus retroflexus; conditions: visual scoring after about 3 weeks vs untreated controls
Source text: as §4

[23] = test system: MATIN; test: Pre-emergence action at 320 g/ha against MATIN; format: in vivo, Tripleurospermum inodorum (Matricaria inodora); conditions: visual scoring after about 3 weeks vs untreated controls
Source text: as §4

[24] = test system: POLCO; test: Pre-emergence action at 320 g/ha against POLCO; format: in vivo, Fallopia convolvulus (Polygonum convolvulus); conditions: visual scoring after about 3 weeks vs untreated controls
Source text: as §4

[25] = test system: VERPE; test: Pre-emergence action at 320 g/ha against VERPE; format: in vivo, Veronica persica; conditions: visual scoring after about 3 weeks vs untreated controls
Source text: as §4

[26] = test system: VIOTR; test: Pre-emergence action at 320 g/ha against VIOTR; format: in vivo, Viola tricolor; conditions: dosage 320 g/ha
Source text: as §4

[27] = test system: AVEFA; test: Pre-emergence action at 320 g/ha against AVEFA; format: in vivo; conditions: visual scoring after about 3 weeks vs untreated controls
Source text: as §4

[28] = test system: DIGSA; test: Pre-emergence action at 320 g/ha against DIGSA; format: in vivo, Digitaria sanguinalis; conditions: visual scoring after about 3 weeks vs untreated controls
Source text: as §4

[29] = test system: SETVI; test: Pre-emergence action at 320 g/ha against SETVI; format: in vivo, Setaria viridis; conditions: visual scoring after about 3 weeks vs untreated controls
Source text: as §4

[30] = test system: ALOMY; test: Pre-emergence action against ALOMY, 1280 g/ha; format: in vivo, Alopecurus myosuroides; conditions: visual scoring after about 3 weeks vs untreated controls, 100% = plants have died, 0% = like control plants
Method in brief: as §1

| SMILES | Pre-emergence action against LOLRI [2] [%] | Pre-emergence action against POAAN [3] [%] | Pre-emergence action against SETVI [4] [%] | Pre-emergence action against AMARE [5] [%] | Pre-emergence action against MATIN [6] [%] | Pre-emergence action against STEME [7] [%] | Pre-emergence action against VERPE [8] [%] | Post-emergence action against ECHCG [9] [%] | Post-emergence action against POAAN [10] [%] | Post-emergence action against SETVI [11] [%] | Post-emergence action against ABUTH [12] [%] | Post-emergence action against MATIN [14] [%] | Pre-emergence action at 320 g/ha against ALOMY in % [20] [%] | Pre-emergence action against LOLRI in % [21] [%] | Pre-emergence action against AMARE in % [22] [%] | Pre-emergence action against MATIN in % [23] [%] | Pre-emergence action against POLCO in % [24] [%] | Pre-emergence action against VERPE in % [25] [%] | Pre-emergence action against VIOTR in % [26] [%] | Pre-emergence action against DIGSA in % [28] [%] | other results |
| --- | --- | --- | --- | --- | --- | --- | --- | --- | --- | --- | --- | --- | --- | --- | --- | --- | --- | --- | --- | --- | --- |
| CCOC(=O)COc1nn(-c2cc(F)c(F)cc2F)c(-c2ccc(F)nc2)c1Cl [VII-009] | 100 | 100 | 100 | 100 | 100 | 100 | 90 | 100 | 100 | 90 | 90 | 100 |  |  |  |  |  |  |  |  | Pre-emergence action against ECHCG [1]: 90%; Post-emergence action against AMARE [13]: 100%; Post-emergence action against STEME [15]: 100%; Post-emergence action against VERPE [16]: 90% |
| O=C(O)C1CCN(C(=O)COc2nn(-c3ccccc3F)c(-c3cncc(F)c3)c2Br)CC1 [Example X-038] | 90 | 100 | 100 | 100 | 90 | 90 | 90 | 90 | 100 | 90 | 90 | 100 |  |  |  |  |  |  |  |  | Pre-emergence action against DIGSA [17]: 90%; Post-emergence action against ALOMY [18]: 90%; Post-emergence action against DIGSA [19]: 90%; Post-emergence action against VERPE [16]: 100% |
| C[C@@H](Oc1nn(-c2ccccc2)c(-c2cccnc2)c1Cl)C(=O)O [VII-042] |  |  |  |  |  |  |  |  |  |  |  |  | 90 | 100 | 100 | 90 | 100 | 90 | 100 |  |  |
| CCOC(=O)COc1nn(-c2ccccc2)c(-c2ccc(F)nc2)c1Br [VII-116] |  |  |  |  |  |  |  |  |  |  |  |  | 100 | 100 | 100 | 90 | 90 | 100 | 90 | 100 | Pre-emergence action against AVEFA in % [27]: 90%; Pre-emergence action against SETVI in % [29]: 100% |
| COC(=O)CN(C)C(=O)COc1nn(-c2ccccc2F)c(-c2ccc(F)nc2)c1Br [Example X-030] |  |  |  |  |  |  |  |  |  |  |  |  | 90 |  | 90 |  |  |  | 90 | 100 | Pre-emergence action against SETVI in % [29]: 80% |
| CCOC(=O)C(F)Oc1nn(-c2ccccc2F)c(-c2ccc(F)nc2)c1Br (centres unmarked) [VII-071-a] |  |  |  |  |  |  |  |  |  |  |  |  | 80 | 100 | 100 | 90 | 90 | 80 | 100 | 90 |  |
| C#Cc1c(OCC(=O)OCC)nn(-c2ccccc2F)c1-c1ccc(F)nc1 [VII-088] | 100 | 100 | 100 | 100 | 100 | 100 | 100 | 100 | 100 | 90 | 90 | 100 |  |  |  |  |  |  |  |  | Pre-emergence action against ALOMY [30]: 100%; Pre-emergence action against DIGSA [17]: 100%; Pre-emergence action against ECHCG [1]: 100%; Post-emergence action against DIGSA [19]: 100%; Post-emergence action against AMARE [13]: 100%; Post-emergence action against STEME [15]: 90% |
| COC(=O)CNC(=O)C(F)Oc1nn(-c2ccccc2F)c(-c2ccc(F)nc2)c1Br (centres unmarked) [Example X-014] |  |  |  |  |  |  |  |  |  |  |  |  | 90 | 90 | 100 | 90 |  |  | 100 |  | Pre-emergence action against SETVI in % [29]: 90% |
